Results as given in patent publication US20230257350A1, “COMPOUNDS AND METHODS OF PROMOTING OLIGODENDROCYTE PRECURSOR DIFFERENTIATION” (The Cleveland Clinic Foundation, priority 2020, published 2023).

Experiments:
[1] = tested on: oligodendrocyte progenitor cells (OPC); experiment: 96-well OPC screening platform: oligodendrocyte generation from primary OPCs; type: cell-based, mouse; conditions: for EC50: Mus musculus, Oligodendrocyte progenitor cell
Experimental: 1) an optimized method to produce primary culture of highly pure mouse oligodendrocyte progenitor cells (OPC); and
2) an algorithm to identify and quantify oligodendrocytes in 96-well format.
(§1) Briefly, the high-throughput small molecule screen included a primary screening where small drug-like organic compounds ([…]) are added to cells seeded on a 96-well plate an incubated. The cells are then visually screened for oligodendrocyte precursor morphology changes. In a secondary screening, differentiation induced by selected compounds was further validated by fluorescence microscopy. Increased fluorescence in treated oligodendrocyte cells generated from a PIp-EGFP transgenic mouse was indicative of cell maturation. Further oligodendrocyte precursor maturation in response to selected compounds was assessed by induction of myelin protein expression as determined by immunocytochemistry and western blot.
Using the 96-well OPC-screening platform, a CNS-bias library of 20,000 drug-like small molecule compounds (Cambridge Co., San Diego, Calif.) was screened, using DMSO as a negative control and T3 (triiodothyronine) as a positive control. Initial screening was at 10 μM, and 390 primary hits were identified. Further testing confirmed that 57 compounds produced at least 50% response of T3.

MTT assay (viability) = type: cell-based; conditions: up to 30 μM
Solubility = type: physicochemical
[2] = Preliminary pharmacokinetic analysis, i.p. injection, LC/MS/MS of plasma and brain; type: in vivo; conditions: i.p. 10 mg/kg, mice
[3] = tested on: cuprizone mouse model of demyelination/remyelination; experiment: Cuprizone/rapamycin demyelination and remyelination model; type: in vivo, mice; conditions: i.p. daily 6 weeks, 10 mg/kg, vs control
Description: 2016; 283(Pt A): 330-340, which is incorporated herein by reference in its entirety. […] At the end of the treatment period, mice were perfused and different tissues analyzed for remyelination. In cortex and hippocampus, PLP antibody staining was used to assess remyelination. In corpus callosum, the number of myelinated axons in semi-thin (1 μm) Epon sections was quantified. […] This in vivo animal data further validates a strategy of using cell-based phenotypic screening to identify remyelination compounds.

OPCs (PLP-EGFP) = experiment: Immunostaining of oligodendrocyte markers PLP and MBP in treated OPCs; type: cell-based, mouse; conditions: 4 days treatment
Experimental: as §1
Finally, similar activation of oligodendrocyte markers was observed when wild-type OPCs were treated with the “hit” compounds, eliminating the possibility that expression of the EGFP construct affected the results.

## Cc1ccc(OCCOCCN2CCC(C)CC2)c(Cl)c1 [CN570]
[1]; Table 1, OPC differentiation
  EC50: 200 nM

## Cc1cc(Cl)cc(C)c1OCCCCN1CCCCC1 [CN478]
[1]; Table 2, OPC differentiation
  EC50: 78 nM

## Fc1cc(Cl)ccc1OC[C@@H]1CCCN2CCCC[C@H]12 [CN566]
[1]; Table 2, OPC differentiation
  EC50: 340 nM

## CC1CCN(CCOCCOc2c(Cl)cc(Cl)cc2Cl)CC1 [CN045]
[1]; Table 1, OPC differentiation
  EC50: 40 nM
[1]; dose-response, FIG. 3B
  increase in the percentage of oligodendrocytes compared with DMSO controls: ~4 fold
[1]; same OPC assay, multiple concentrations, FIG. 2
  efficacy compared with benztropine, clemastine or T3: almost twice the efficacy
MTT assay (viability)
  viability: > 80%
Solubility
  solubility: > 500 µM
[2]; C57BU6J, mouse, ip, brain homogenate vs. plasma, read-out: brain/plasma ratio
  Kp: 0.8
[2]
  time of peak concentration following injection: ~2 h
[3]; p<0.01
  remyelination in corpus callosum (number of myelinated axons): significantly increased remyelination
  remyelination in cortex (PLP antibody staining): significantly increased remyelination
[3]; p<0.05
  remyelination in hippocampus (PLP antibody staining): significantly increased remyelination
OPCs (PLP-EGFP)
  co-labeling of EGFP+ cells by PLP and MBP antibodies: All EGFP+ cells were co-labeled by PLP and MBP antibodies

## Cc1cc(Cl)cc(C)c1OCCCCN1CCOCC1 [CN644]
[1]; Table 2, OPC differentiation
  EC50: 270 nM

## Cc1cc(Cl)cc(Cl)c1OCCOCCN1CCN(C)CC1 [CN265]
[1]; Table 1, OPC differentiation
  EC50: 540 nM

## CCc1cc(OCCOCCN2CCC(C)CC2)ccc1Cl [CN049]
[1]; Table 1, OPC differentiation
  EC50: 165 nM

## Cc1cc(Cl)ccc1OCCOCCN1CCC(C)CC1 [CN918]
[1]; Table 1, OPC differentiation
  EC50: 193 nM

## CC1CCC(N2CCN(Cc3cccc(Br)c3)CC2)CC1 (centres unmarked) [CN007]
[1]
  EC50: 40 nM

## Cc1cc(Cl)cc(C)c1OCCCCN1CCC[C@H](C)C1 [CN329]
[1]; Table 2, OPC differentiation
  EC50: 42 nM
